Assay results from patent US20060252828A1 (priority 2003, published 2006).
Several values for one entry are separate records, joined by “and”; a condition that tells them apart may be missing. Equal entries are not always repeated.

System: Meloidogyne spp (Mixture of Meloidogyne incognita and Meloidogyne hapla)
Settings: in vivo

SMILES: CN1CSC(=S)N(C)C1 [dazomet, 3,5-dimethyltetrahydro-2H-1,3,5-thiadiazine-2-thione]
- Observed efficacy: 2% and 0%
